The text below walks through data of patent US20240336657A1, “G-ALPHA-S PEPTIDE INHIBITORS AND USES THEREOF” (The Regents of the University of California, priority 2021, published 2024).

Molecules are shown by their SMILES. Positions of bridges follow the written chain, without caps; N, C: chain ends. Non-standard residues stand in square brackets, D forms with d. Residues, ends and D or L forms follow the SMILES beside them.

One experiment has as its target Gαs (Homo sapiens, UniProt P63092). The experiment is described as follows: GDP dissociation assay ([3H]GDP). Type of experiment: biochemical. The arrangement: made in house; host or cells: Escherichia coli BL21(DE3). As to the method:
Gα proteins were diluted to 400 nM in the EDTA buffer (20 mM HEPES 7.5, 150 mM NaCl, 1 mM EDTA-Na 8.0, 2 mM DTT). [^3H]GDP (1 mCi/mL, 25.2 μM) was added to a final concentration of 1.2 μM, followed by cyclic peptides addition. After incubation at 20° C. for 30 minutes, the same volume of assay buffer ([…] HEPES-Na 7.5, 150 mM NaCl, 2 mM MgCl2, and 1 mM GDP) was added to initiate [^3H]GDP dissociation. At various points, […] was removed and mixed with 390 μL of ice-cold wash buffer (20 mM HEPES 7.5, 150 mM NaCl, 20 mM MgCl2). The mixture was immediately filtered through a mixed cellulose membrane (25 mm, 0.22 μm) held by a microanalysis filter holder (EMD Millipore). The membrane was washed by ice-cold wash buffer (500 μL×3), put in a 6-mL plastic vial and air-dried (room temperature 1.5 h). 5 mL of CytoScint-ES Liquid Scintillation Cocktail was added to each vial. After incubation overnight at room temperature, the vial was used for liquid scintillation counting with a LS 6500 Multi-Purpose Scintillation Counter.
The GDP dissociation curves were fitted by the software GraphPad Prism using the following equation to calculate the dissociation rates (koff): […]
in which “Y” is the radioactivity (Counts per minute) of the sample at time “X” (minutes), and Y0 is the calculated radioactivity of the sample at the time point 0.

The target in a further experiment is WT Gαs (Homo sapiens, UniProt P63092). The experiment is described as follows: Adenylyl cyclase activity assay in membranes of GNAS KO HEK293 cells transfected with WT Gαs. To be noted: WT Gαs reintroduced by transient transfection. Format: biochemical. The arrangement: expressed in transfected cells; host or cells: GNAS KO HEK293 cells (membranes). The text has this:
To further assess the cellular specificity of GN13, we designed a GN13-resistant Gαs mutant based on structural analysis. […] We reasoned that mutating this serine residue to a bulky residue should create a drug-resistant Gαs mutant that blocks the GN13-Gαs interaction but would have little effect on adenylyl cyclase activation. […] By contrast, when the drug resistant mutant Gαs S275L was reintroduced into GNAS KO cells, the inhibitory effect of GN13 was abolished (FIG. 3I), providing further evidence that the observed pharmacological activity is due to GN13 binding to the switch II/α3 pocket in Gαs.
GN13 inhibition of Gαs proteins in HEK293 cell membranes (FIG. 17F and FIG. 18F).
a. Cell membrane preparation: HEK293cells, GNAS KO HEK293 cells were plated two day before transfection at a density of 1M cells per 10 cm plate. […] The protein concentrations were measured using BCA, and were normalized to 750 μg/mL. […] The cAMP concentrations were measured by the LANCE Ultra cAMP kit. […]
A cAMP standard curve was generated in the same plate using the 50 μM cAMP standard in the kit. […] 10 μL of each diluted sample was mixed with 5 μL of 4× Eu-cAMP tracer and 5 μL of 4× ULight-anti-cAMP in a white, opaque Optiplate-384 microplate, incubated for 1 hour at room temperature, and the time-resolved fluorescence resonance energy transfer (TR-FRET) signals were read on a Spark 20M plate reader. […]

Sequence of Gαs (P63092 1-380 isoform P63092-2): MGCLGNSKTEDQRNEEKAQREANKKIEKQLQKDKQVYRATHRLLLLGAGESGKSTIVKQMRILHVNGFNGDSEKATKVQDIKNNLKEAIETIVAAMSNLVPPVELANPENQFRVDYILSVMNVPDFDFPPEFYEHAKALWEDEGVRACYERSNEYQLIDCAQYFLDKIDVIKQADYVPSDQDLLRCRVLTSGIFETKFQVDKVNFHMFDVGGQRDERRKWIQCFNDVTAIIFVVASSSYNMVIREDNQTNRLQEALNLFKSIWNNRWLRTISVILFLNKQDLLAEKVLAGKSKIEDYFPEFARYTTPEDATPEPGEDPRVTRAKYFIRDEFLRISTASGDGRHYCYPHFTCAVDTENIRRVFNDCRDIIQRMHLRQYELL
Sequence of WT Gαs (P63092 whole entry): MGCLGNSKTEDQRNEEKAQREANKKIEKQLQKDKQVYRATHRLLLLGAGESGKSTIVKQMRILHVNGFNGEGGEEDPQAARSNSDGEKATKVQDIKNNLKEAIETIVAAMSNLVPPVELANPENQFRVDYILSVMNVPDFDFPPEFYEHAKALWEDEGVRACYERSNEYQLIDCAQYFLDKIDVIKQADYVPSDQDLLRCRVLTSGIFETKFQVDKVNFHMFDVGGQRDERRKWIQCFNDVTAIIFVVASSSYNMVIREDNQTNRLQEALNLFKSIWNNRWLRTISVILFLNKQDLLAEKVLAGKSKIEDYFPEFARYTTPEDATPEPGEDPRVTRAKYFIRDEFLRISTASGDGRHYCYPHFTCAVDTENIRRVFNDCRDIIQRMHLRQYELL

For `CC[C@H](C)[C@@H]1NC(=O)[C@H](C)NC(=O)[C@H](Cc2ccc(O)cc2)NC(=O)[C@H](C(C)C)NC(=O)[C@H](CO)NC(=O)[C@H](CCC(=O)O)NC(=O)[C@H](Cc2ccccc2)NC(=O)[C@@H](Cc2ccc(O)cc2)NC(=O)CSC[C@@H](C(=O)NCC(N)=O)NC(=O)[C@H](CC(C)C)NC(=O)[C@H]([C@@H](C)O)NC(=O)CNC(=O)[C@H](Cc2c[nH]c3ccccc23)NC1=O` [GN13] ({CH2CO}-[dY]FESVYAIWGTLCG-NH2; thioether N-13), at Gαs, the “effect on Gαs GDP dissociation rates (koff)” value is given as “only slightly influenced”. Further, the “inhibition of isoproterenol-mediated cAMP production in cell membranes” value at WT Gαs was “able to inhibit”.
